Measured values taken from patent US5506239A, “Carbostyril derivative and platelets aggregation inhibitory agent” (Otsuka Pharmaceutical Co., Ltd., priority 1991, dated 1996).

The compounds below were run on platelets (assay: Platelets aggregation inhibitory activity (method of Born et al.), ADP-induced, human PRP (Pharmacological Test I)). Settings: 7.5 μM ADP, 37° C., read-out: IC50 ADP (50% platelets aggregation inhibition).
Format: cell-based, man
Experimental: (§1) The platelets aggregation inhibitory activity of each test compound was measured by the method of Born et al. [J. Physiol., London, 162, 67 (1962)], using Platelets Aggregation Tracer manufactured by Nikoh Bioscience Co., Ltd.
(§2) 9 volumes of a blood collected from person was mixed with 1 volume of a 3.8% aqueous sodium citrate solution. Part of the mixture was subjected to centrifugation at 1,100 rpm for 10 minutes to obtain a platelet rich plasma (PRP). The remainder of the mixture was also subjected to centrifugation at 3,000 rpm for 10 minutes to obtain a platelet poor plasma (PPP).
(§3) The number of platelets in the PRP was measured using Coulter Counter manufactured by Coulter Electronics Inc. Then, the PRP was diluted with the PPP so that the number of platelets in the dilution became 300,000, whereby a PRP solution was prepared.
(§4) 200 μl of this PRP solution and 2 ml of a solution containing a test compound at a given concentration were placed in an aggregation measurement cell and heated at 37° C. for 1 minute. Thereto was added 20 μl of adenosine diphosphate (ADP manufactured by Sigma Co.) or a collagen suspension (Collagen Reagent manufactured by Horm, Hormon-Chemie, Gmbh) to induce aggregation of platelets. The resulting mixture in the cell was measured for change of transmittance, after which a platelets aggregation curve was prepared. Incidentaly, the concentration of ADP or collagen was selected so that the final Concentration became 7.5 μM or 20 μg/ml.
(§5) Using the platelets aggregation curve, there was calculated a maximum aggregation rate (MAR) of platelets using the followoing formula: […]
(§6) wherein a represents a transmittance of the PRP obtained in the same manner; c represents a transmittance of the PPP obtained in the same manner; and b represents a transmittance at the maximum change, of the PRP solution containng the test compound and the aggregation inducer.
(§7) A MAR was also calculated as above, for the control containing no test compound.
(§8) Using the above two MARs, there were calculated platelets aggregation inhibitions (%) of each test compound at various concentrations using the following formula.
(§9) Inhibition=[1-(MAR of PRP solution containing test compound)/(MAR of PRP
(§10) solution containing no test compound)]×100
(§11) Using the above obtained platelets aggregation inhibitions (%) of each test compound at various concentrations, there was calculated a concentration (IC50) of each test compound for 50% platelets aggregation inhibition.

Structure (SMILES)	IC50
CN(C(=S)CCCOc1ccc2[nH]c(=O)ccc2c1)C1CCCCC1 [Example 143]	3.8 µM
O=c1ccc2cc(OCCCCN(CCN3CCC(O)CC3)CC3CCCCCCC3)ccc2[nH]1 [Example 16]	6.3 µM

Same assay, conditions: Homo sapiens, Platelet, 7.5 μM ADP, 37° C., read-out: IC50 ADP (50% platelets aggregation inhibition)

Structure (SMILES)	IC50
COC(=O)[C@@H]1C[C@@H](O)CN1CCCCOc1ccc2[nH]c(=O)ccc2c1 [Example 73]	25 µM
O=c1ccc2cc(OCCCS(=O)(=O)N(CCN3CCC(O)CC3)Cc3ccccc3)ccc2[nH]1 [Example 83]	11 µM
CCN(CC)CCN(CCCCOc1ccc2[nH]c(=O)ccc2c1)CC1CCCCCC1 [Example 62]	18 µM
CN(C)C(=O)[C@@H]1CCCN1CCN(CCCCCOc1ccc2[nH]c(=O)ccc2c1)Cc1ccccc1 [Example 53]	11 µM
O=c1ccc2cc(OCCCCN(CC(O)CO)CC3CCCCC3)ccc2[nH]1 (centres unmarked) [Example 68]	15 µM
O=C(O)CN(CCCCOc1ccc2[nH]c(=O)ccc2c1)CC1CCCCCCC1 [Example 64]	9 µM
O=c1ccc2cc(OCCCCS(=O)(=O)N(CCN3CCC(O)CC3)Cc3ccccc3)ccc2[nH]1 [Example 89]	7.7 µM
O=c1ccc2cc(OCCCCN(CCN3CCC(O)CC3)CC3CCCCC3)ccc2[nH]1 [Example 23]	8 µM
CC(=O)NCCN(CCCCOc1ccc2[nH]c(=O)ccc2c1)CC1CCCCCCC1 [Example 61]	4.9 µM
O=c1ccc2cc(OCCCCN(CCN3CCC(O)CC3)CC3CCCCCCC3)ccc2[nH]1 [Example 15]	10 µM
O=c1ccc2cc(OCCCS(=O)(=O)N(CC(O)CO)CC3CCCCC3)ccc2[nH]1 (centres unmarked) [Example 109]	4.9 µM
O=c1ccc2cc(OCCCCCN(Cc3ccccc3)Cc3ccccn3)ccc2[nH]1 [Example 70]	40 µM
O=C(CN(CCCCCOc1ccc2[nH]c(=O)ccc2c1)Cc1ccccc1)N1CCC(O)CC1 [Example 20]	2 µM
O=c1ccc2cc(OCCCCS(=O)(=O)N(CCN3CCC(O)CC3)Cc3ccccc3Cl)ccc2[nH]1 [Example 93]	1.2 µM

These compounds were tested on platelets (assay: Inhibition of collagen-induced platelets adhesion, washed platelets (Pharmacological Test III)). Settings: Platelet; dose 10 μM; 50 μg/ml collagen; human washed platelets; read-out: Inhibition (%) of collagen-induced platelets adherence.
Format: cell-based, man
Experimental: A blood was collected from a healthy person with normal platelets function by addition of 0.1% disodium ethylenediaminetetraacetate (EDTA.4Na) and immediately subjected to separation of a platelet rich plasma (PRP). The PRP was washed twice with a Tyrode's buffer solution (50mM TRIS, 0.1% EDTA, Ca (-), Mg (-), 0.14% BSA added, pH=7.4), and suspended in the buffer solution so that the number of platelets in the resulting suspension became 300, 000/ml, to obtain a platelets suspension (EDTA-WP). 4 mg of Type I manufactured by Sigma Co., derived from a bovine skin was dissolved in 0.25 ml of acetic acid (83.5 mM); 8 ml of distilled water was added thereto; an ultrasonic wave was applied to the mixture at 4° C. for 2 minutes; 5 ml of the supernatant liquid was separated as a collagen solution. Each test compound was dissolved in dimethylformamide (DMF) so as to give a concentration of at least […] when possible, to prepare a test compound solution. The change in turbidity of platelets suspension was recorded as a change in transmitted light emitted from a glass cell containing the suspension, using a platelets aggregation tracer manufactured by Nikoh Bioscience K.K., generally used in the test of platelets aggregation function, whereby the adherence of platelets was measured. Incidentally, in recoridng the change in transmitted light, the sensitivity of the recorder was 5 times as high as that used generally. 200 μl of the EDTA-WP was placed in a glass cell exclusively used for the above platelets aggregation tester. Further, 1 μl of the test compound solution was added. The mixture was incubated at room temperature for 5 minutes. Then, the cell was set in the platelets aggregation tracer and was allowed to stand for 1 minute until the temperature became 37° C. Thereafter, about 20 μl (50 μg/ml) of the collagen solution was added, and the adherence of platelets were measured.
The inhibitions (%) of collagen-induced platelets adhesion by each test compound at various concentrations were calculated using the following formula.
Inhibition (%)=[1-(platelets adherence when test compound added)/
(platelets adherence when no test compound added)]×100

Structure (SMILES)	inhibition at 10 µM
O=C(CN(CCCCCOc1ccc2[nH]c(=O)ccc2c1)Cc1ccccc1)N1CCC(O)CC1 [Example 20]	49%
O=c1ccc2cc(OCCCCN(CCN3CCC(O)CC3)CC3CCCCCCC3)ccc2[nH]1 [Example 16]	48%

Same assay, conditions: Platelet; dose 30 μM; 50 μg/ml collagen; human washed platelets; read-out: Inhibition (%) of collagen-induced platelets adherence

Structure (SMILES)	inhibition at 30 µM
CN(C)C(=O)[C@@H]1CCCN1CCN(CCCCCOc1ccc2[nH]c(=O)ccc2c1)Cc1ccccc1 [Example 53]	35%
O=C(O)CN(CCCCOc1ccc2[nH]c(=O)ccc2c1)CC1CCCCCCC1 [Example 64]	31%
CC(=O)NCCN(CCCCOc1ccc2[nH]c(=O)ccc2c1)CC1CCCCCCC1 [Example 61]	35%

Same assay, conditions: Platelet; dose 100 μM; 50 μg/ml collagen; human washed platelets; read-out: Inhibition (%) of collagen-induced platelets adherence

Structure (SMILES)	inhibition at 100 µM
COC(=O)[C@@H]1C[C@@H](O)CN1CCCCOc1ccc2[nH]c(=O)ccc2c1 [Example 73]	36%
CCN(CC)CCN(CCCCOc1ccc2[nH]c(=O)ccc2c1)CC1CCCCCC1 [Example 62]	54%

Each compound was assayed on platelets (assay: Platelets aggregation inhibitory activity (method of Born et al.), collagen-induced, human PRP (Pharmacological Test I)). Settings: 20 μg/ml collagen, 37° C., read-out: IC50 Collagen (50% platelets aggregation inhibition).
Format: cell-based, man
Experimental: as §1, §2, §3, §4, §5, §6, §7, §8, §9, §10, §11

Structure (SMILES)	IC50
O=c1ccc2cc(OCCCCN(CCN3CCC(O)CC3)CC3CCCCCCC3)ccc2[nH]1 [Example 15]	3.6 µM
O=c1ccc2cc(OCCCCN(CCN3CCC(O)CC3)CC3CCCCCCC3)ccc2[nH]1 [Example 16]	7.4 µM

Same assay, conditions: Homo sapiens, Platelet, 20 μg/ml collagen, 37° C., read-out: IC50 Collagen (50% platelets aggregation inhibition)

Structure (SMILES)	IC50
COC(=O)[C@@H]1C[C@@H](O)CN1CCCCOc1ccc2[nH]c(=O)ccc2c1 [Example 73]	6.9 µM
O=c1ccc2cc(OCCCS(=O)(=O)N(CCN3CCC(O)CC3)Cc3ccccc3)ccc2[nH]1 [Example 83]	4.3 µM
CCN(CC)CCN(CCCCOc1ccc2[nH]c(=O)ccc2c1)CC1CCCCCC1 [Example 62]	17 µM
CN(C)C(=O)[C@@H]1CCCN1CCN(CCCCCOc1ccc2[nH]c(=O)ccc2c1)Cc1ccccc1 [Example 53]	13 µM
O=c1ccc2cc(OCCCCN(CC(O)CO)CC3CCCCC3)ccc2[nH]1 (centres unmarked) [Example 68]	7.1 µM
O=C(O)CN(CCCCOc1ccc2[nH]c(=O)ccc2c1)CC1CCCCCCC1 [Example 64]	10 µM
O=c1ccc2cc(OCCCCS(=O)(=O)N(CCN3CCC(O)CC3)Cc3ccccc3)ccc2[nH]1 [Example 89]	3.8 µM
O=c1ccc2cc(OCCCCN(CCN3CCC(O)CC3)CC3CCCCC3)ccc2[nH]1 [Example 23]	9.5 µM
CC(=O)NCCN(CCCCOc1ccc2[nH]c(=O)ccc2c1)CC1CCCCCCC1 [Example 61]	6.3 µM
O=c1ccc2cc(OCCCS(=O)(=O)N(CC(O)CO)CC3CCCCC3)ccc2[nH]1 (centres unmarked) [Example 109]	6.3 µM
O=c1ccc2cc(OCCCCCN(Cc3ccccc3)Cc3ccccn3)ccc2[nH]1 [Example 70]	22 µM
CN(C(=S)CCCOc1ccc2[nH]c(=O)ccc2c1)C1CCCCC1 [Example 143]	2.3 µM
O=C(CN(CCCCCOc1ccc2[nH]c(=O)ccc2c1)Cc1ccccc1)N1CCC(O)CC1 [Example 20]	1.2 µM
O=c1ccc2cc(OCCCCS(=O)(=O)N(CCN3CCC(O)CC3)Cc3ccccc3Cl)ccc2[nH]1 [Example 93]	2.6 µM

The compounds below were run against T1, cyclic AMP phosphodiesterase (Homo sapiens, UniProt Q14432) (assay: Cyclic AMP phosphodiesterase inhibitory activity, enzyme from human platelets (Pharmacological Test IV)). Settings: 0.4 μM cyclic AMP substrate, 30° C., 20 minutes, human platelet enzyme; read-out: IC50 (50% phosphodiesterase inhibition concentration).
T1 construct: the resulting supernatant liquid was used as a crude enzyme solution; from tissue; host or cells: human platelets (from platelet-rich plasma)
T1 sequence (Q14432 whole entry): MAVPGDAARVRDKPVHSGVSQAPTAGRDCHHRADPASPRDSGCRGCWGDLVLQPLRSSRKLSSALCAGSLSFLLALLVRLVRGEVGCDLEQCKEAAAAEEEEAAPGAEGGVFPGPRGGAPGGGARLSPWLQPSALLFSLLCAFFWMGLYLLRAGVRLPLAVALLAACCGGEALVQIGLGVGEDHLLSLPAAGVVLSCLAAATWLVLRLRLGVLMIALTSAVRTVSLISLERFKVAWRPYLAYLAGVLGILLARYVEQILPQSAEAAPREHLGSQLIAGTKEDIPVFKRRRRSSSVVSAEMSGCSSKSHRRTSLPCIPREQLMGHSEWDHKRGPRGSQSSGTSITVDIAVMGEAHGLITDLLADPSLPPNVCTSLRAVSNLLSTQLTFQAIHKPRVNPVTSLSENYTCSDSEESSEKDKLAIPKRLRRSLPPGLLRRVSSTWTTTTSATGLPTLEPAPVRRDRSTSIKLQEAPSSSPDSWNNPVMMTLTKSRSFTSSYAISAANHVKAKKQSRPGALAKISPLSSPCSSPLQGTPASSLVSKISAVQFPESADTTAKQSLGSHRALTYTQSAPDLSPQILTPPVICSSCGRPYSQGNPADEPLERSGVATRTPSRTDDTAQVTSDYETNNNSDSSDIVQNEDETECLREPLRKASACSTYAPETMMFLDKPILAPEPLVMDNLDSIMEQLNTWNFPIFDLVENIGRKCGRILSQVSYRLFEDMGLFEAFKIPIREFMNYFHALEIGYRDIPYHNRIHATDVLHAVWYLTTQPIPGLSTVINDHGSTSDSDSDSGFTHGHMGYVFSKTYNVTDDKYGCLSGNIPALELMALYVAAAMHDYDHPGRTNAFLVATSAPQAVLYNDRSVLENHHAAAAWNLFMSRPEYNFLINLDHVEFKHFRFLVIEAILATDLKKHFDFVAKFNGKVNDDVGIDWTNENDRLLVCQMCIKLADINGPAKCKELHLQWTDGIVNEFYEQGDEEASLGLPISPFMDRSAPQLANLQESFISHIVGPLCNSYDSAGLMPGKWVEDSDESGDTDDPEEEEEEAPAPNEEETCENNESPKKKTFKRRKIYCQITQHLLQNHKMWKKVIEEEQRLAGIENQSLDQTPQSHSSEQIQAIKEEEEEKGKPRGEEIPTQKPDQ
Format: biochemical, man

Structure (SMILES)	IC50
O=c1ccc2cc(OCCCCS(=O)(=O)N(CCN3CCC(O)CC3)Cc3ccccc3)ccc2[nH]1 [Example 89]	< 0.1 µM
O=c1ccc2cc(OCCCCCN(Cc3ccccc3)Cc3ccccn3)ccc2[nH]1 [Example 70]	< 0.1 µM
CN(C(=S)CCCOc1ccc2[nH]c(=O)ccc2c1)C1CCCCC1 [Example 143]	1.44 µM
O=c1ccc2cc(OCCCCS(=O)(=O)N(CCN3CCC(O)CC3)Cc3ccccc3Cl)ccc2[nH]1 [Example 93]	< 0.1 µM

What follows are compounds tested on mongrel dogs (assay: not given). Settings: dog, in vivo, 300 mg/kg.
Experimental: The heart rate-increasing activity and blood pressure hypotensive activity of each test compound were measured by the following method, using mongrel dogs each weighing 10-20 kg. That is, said dogs were anesthesized by intravenous injection of pentobarbital sodium, then fixed at the back, and tested under artificial respiration. The blood pressures of the dogs were measured by a blood pressure measuring transducer (P23×L manufactured by Gould Statham Instruments, Inc.) via cannula inserted into the femoral artery. The heart rates of the dogs were measured using the pulse wave of the blood pressure of each dog, via a tachometer. The signals of these testng apparatuses were recorded on a thermal pen-type recorder (Recti-Horize 8K manufactured by Nippon Denki-San-ei Sha).
Some of the compounds obtained in the above Examples were used as test compounds. […] Then, the heart rate of each dog was measured according to the above method and a maximum change in heart rate was calculated.

Structure (SMILES)	Maximum change in heart rate
O=c1ccc2cc(OCCCS(=O)(=O)N(CCN3CCC(O)CC3)Cc3ccccc3)ccc2[nH]1 [Example 83]	9 beats/minute
CCN(CC)CCN(CCCCOc1ccc2[nH]c(=O)ccc2c1)CC1CCCCCC1 [Example 62]	2 beats/minute
O=c1ccc2cc(OCCCCN(CC(O)CO)CC3CCCCC3)ccc2[nH]1 (centres unmarked) [Example 68]	30 beats/minute
O=c1ccc2cc(OCCCCN(CCN3CCC(O)CC3)CC3CCCCC3)ccc2[nH]1 [Example 23]	-2 beats/minute
CC(=O)NCCN(CCCCOc1ccc2[nH]c(=O)ccc2c1)CC1CCCCCCC1 [Example 61]	17 beats/minute
O=c1ccc2cc(OCCCCN(CCN3CCC(O)CC3)CC3CCCCCCC3)ccc2[nH]1 [Example 15]	1 beats/minute
O=c1ccc2cc(OCCCS(=O)(=O)N(CC(O)CO)CC3CCCCC3)ccc2[nH]1 (centres unmarked) [Example 109]	16 beats/minute
